Experimental findings from patent EP0305968A2, “Compositions against protozoal diseases” (YEDA RESEARCH AND DEVELOPMENT COMPANY LIMITED, priority 1987, dated 1989) are described below.

Converted amounts (≈) assume the structure as drawn.

The test system of the experiment is Entamoeba histolytica. The experiment can be described thus: Killing of Entamoeba histolytica trophozoites in culture, with particle ingestion. The following applies: drug alone. Type of experiment: cell-based. The text has this: The particles were diol subsituted silica or aluminum- silicate particles Fig. 1), in which aldehyde groups can be formed by pretreatment with periodate that oxidizes vicinal hydroxyl groups and yields aldehyde groups. […] Schiff base was then interacted with sodium bisulfite to stabilize the bond (Fig. 2). […] One mg of dry weight silica particles contains 10⁷-10⁹ particles depending on the source.

Take `Cc1ncc([N+](=O)[O-])n1CCO` [Metronidazole]: the EC95 (Entamoeba histolytica, over 24 h, read-out: concentration required to kill more than 95% of the trophozoites) fell in the range of 1 to 5 µg/mL (≈ 5.84 to 29.2 µM). Also, the “time required to kill more than 95% of the trophozoites” value (1-5 µg/ml) is reported as “over 24 h”.
